For assay [1], the system named is Pseudocercosporella herpotrichoides. Put plainly: Calcofluor rescue with filamentous fungus instead of S. cerevisiae. Format: cell-based. The following applies: does not grow in the media. From the text: (§1) Attempts are made to replace S. cerevisiae with several species of filamentous fungi, including Neurospora crassa, Aspergillus nidulans, Botrytis cinerea, Pseudocercosporella herpotrichoides, but all the species respond differently from S. cerevisiae. N. crassa and A. nidulans require very high concentrations of calcofluor to inhibit growth.

For the next assay, the system named is Neurospora crassa. Described as above. Format: cell-based. The following applies: very high calcofluor concentrations.
Source text: as §1

For another assay, the system named is Aspergillus nidulans. The description is as above. Format: cell-based. The following applies: very high calcofluor concentrations.
Source text: as §1

Another assay deals with Botrytis cinerea. The assay is described as above. Format: cell-based. The conditions noted are these: does not grow in the media.
Source text: as §1

The next assay concerns the target T1, Chs3 (Saccharomyces cerevisiae, UniProt P29465).
T1 construct: To assay Chs3 activity, membranes from cells lacking Chs1 and, preferably, Chs2 are prepared; endogenous in cells; host or cells: S. cerevisiae strains ECY36-3C, JW17-11/1A/FOA or SSY640-10A (crude membrane fraction)
Put plainly: In vitro chitin synthase enzyme assay (incorporation of UDP-14C-N-acetylglucosamine). Format: biochemical. How it is done:
In Vitro Secondary Screens. These enzyme assays detect inhibition of individual chitin synthase isozymes Chs1, Chs2, and Chs3 by monitoring the incorporation of radioactive chitin precursor uridine diphospho-N-acetyl glucosamine into acid precipitable counts (i.e., chitin).
To assay Chs3 activity, membranes from cells lacking Chs1 and, preferably, Chs2 are prepared by a modification of the method of Orlean, P. cited above. Strain ECY36-3C, JW17-11/1A/FOA or SSY640-10A are inoculated into YEPD, and the culture is shaken at 30° C. Cells are harvested while still growing exponentially, e.g., at O.D.600 of ˜0.4 as measured in a Guilford Response™ spectrophotometer, washed once in 50 mM Tris-HCl, pH 7.5, containing 0.01 mM EDTA and 1 mM DTT (1,4-dithiothreitol), and resuspended in about 3 volumes of this buffer. Glass beads of about 200 to 300 micron diameter are added to just below the meniscus of the suspension, and cells are shaken by vortexing or in a Bead-Beater™ until lysis occurs, which is monitored microscopically. During this procedure, the cell suspension is kept below 10° C. by cooling in ice. The extract is collected, the glass beads are washed with the same buffer, and the wash is added to the extract. The volume is adjusted to about 20 original volumes with the same buffer.
The cell walls and debris are removed by a 10 minute centrifugation at about 3000×g. The samples are centriuged at 100,000×g for 40 minutes at 4° C. The membrane pellets are resuspended in about one original volume 50 mM Tris-HCl, pH 7.5 containing 0.01 mM EDTA which may contain 33% glycerol, and subjected to Dounce homogenization.
Ten μl of membranes are incubated with shaking in the presence of putative inhibitors in a standard 50 μl assay mixture containing 1 mM uridine diphospho-(^14C)-N-acetyl-glucosamine (400,000 cpm/μmole), 40 mM N-acetylglucosamine, 50 mM Tris-HCl, pH 7.5, and 5 mM MgCl2 at 25° C. The reaction is stopped after 90 minutes by addition of 10% trichloroacetic acid, and the amount of product quantified by filtration and scintillation counting.

T1 sequence (P34226 1-693): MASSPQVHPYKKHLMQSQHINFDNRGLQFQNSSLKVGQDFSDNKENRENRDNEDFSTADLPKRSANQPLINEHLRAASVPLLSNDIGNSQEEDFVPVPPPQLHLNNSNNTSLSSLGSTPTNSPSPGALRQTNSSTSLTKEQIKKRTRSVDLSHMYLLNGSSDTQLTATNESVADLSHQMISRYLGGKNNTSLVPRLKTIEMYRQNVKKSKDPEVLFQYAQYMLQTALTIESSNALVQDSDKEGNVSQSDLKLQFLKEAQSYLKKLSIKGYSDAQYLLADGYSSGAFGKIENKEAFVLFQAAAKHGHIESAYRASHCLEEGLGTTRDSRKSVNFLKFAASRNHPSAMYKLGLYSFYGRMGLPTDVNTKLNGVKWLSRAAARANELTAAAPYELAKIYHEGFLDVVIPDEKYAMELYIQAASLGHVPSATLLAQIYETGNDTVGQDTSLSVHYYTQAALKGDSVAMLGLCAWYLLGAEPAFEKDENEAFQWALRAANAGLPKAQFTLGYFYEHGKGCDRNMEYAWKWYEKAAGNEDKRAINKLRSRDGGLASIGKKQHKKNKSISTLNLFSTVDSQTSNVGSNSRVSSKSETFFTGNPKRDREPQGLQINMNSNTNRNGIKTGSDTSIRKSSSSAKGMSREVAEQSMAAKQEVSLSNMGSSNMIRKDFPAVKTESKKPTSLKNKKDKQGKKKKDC
T1 sequence (P29465 whole entry): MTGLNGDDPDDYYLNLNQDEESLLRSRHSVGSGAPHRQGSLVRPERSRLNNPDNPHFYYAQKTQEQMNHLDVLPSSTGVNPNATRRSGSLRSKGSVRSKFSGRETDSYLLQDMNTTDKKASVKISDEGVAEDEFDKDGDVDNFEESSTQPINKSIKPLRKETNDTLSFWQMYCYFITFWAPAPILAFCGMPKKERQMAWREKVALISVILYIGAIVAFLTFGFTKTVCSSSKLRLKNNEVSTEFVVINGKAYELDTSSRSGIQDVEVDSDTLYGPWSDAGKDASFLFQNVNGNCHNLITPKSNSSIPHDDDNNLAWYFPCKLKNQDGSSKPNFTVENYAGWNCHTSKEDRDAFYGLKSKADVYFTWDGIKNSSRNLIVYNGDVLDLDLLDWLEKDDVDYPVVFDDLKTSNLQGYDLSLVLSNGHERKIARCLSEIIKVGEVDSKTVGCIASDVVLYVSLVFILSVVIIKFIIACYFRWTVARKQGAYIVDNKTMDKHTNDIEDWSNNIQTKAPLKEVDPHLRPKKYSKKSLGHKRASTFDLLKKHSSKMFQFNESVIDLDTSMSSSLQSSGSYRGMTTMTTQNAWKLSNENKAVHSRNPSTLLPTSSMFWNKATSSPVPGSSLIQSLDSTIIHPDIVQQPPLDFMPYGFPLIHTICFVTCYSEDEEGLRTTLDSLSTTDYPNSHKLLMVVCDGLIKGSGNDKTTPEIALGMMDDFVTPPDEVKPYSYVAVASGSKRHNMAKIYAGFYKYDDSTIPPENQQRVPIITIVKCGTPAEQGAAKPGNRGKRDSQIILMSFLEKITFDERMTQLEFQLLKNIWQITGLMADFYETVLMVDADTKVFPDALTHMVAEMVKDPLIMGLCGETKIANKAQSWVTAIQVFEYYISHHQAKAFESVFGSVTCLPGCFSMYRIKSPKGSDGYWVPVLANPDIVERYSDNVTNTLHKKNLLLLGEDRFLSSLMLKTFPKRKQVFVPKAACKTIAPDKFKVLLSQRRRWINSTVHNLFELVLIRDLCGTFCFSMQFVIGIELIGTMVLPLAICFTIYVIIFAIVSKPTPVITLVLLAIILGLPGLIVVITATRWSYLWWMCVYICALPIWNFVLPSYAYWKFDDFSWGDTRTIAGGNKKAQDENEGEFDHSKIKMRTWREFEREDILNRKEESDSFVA

For `C[C@@H]([C@H](N)C(=O)N[C@H](C(=O)O)[C@H]1O[C@@H](n2ccc(=O)[nH]c2=O)[C@H](O)[C@@H]1O)[C@H](O)c1ccc(O)cn1` [nikkomycin Z], the rescue from calcofluor entry (in assay [1]; in the assay with Botrytis cinerea) was “no rescue” throughout. Further, the “growth in calcofluor culture” value with Neurospora crassa and in the assay on Aspergillus nidulans was “extensive growth” in each case. The “% Chs3 Activity” value is listed as “˜80%” at Chs3 (1 μM inhibitor), “˜55%” on Chs3 (2.5 μM inhibitor) and “˜41%” on Chs3 (5 μM inhibitor). In addition, on Chs3 (secondary screening, Chs1, Chs2, Chs3 assays), the “chitin synthase isozyme affected” value is “act preferentially on the Chs3 isozyme”.

The values above are taken from patent US6589762B1, “Calcafluor screen for chitin biosynthesis inhibitors” (priority 1993, dated 2003).
